According to patent US7666905B2, “Compositions comprising hepoxilin analogs and their use in the treatment of cancer” (priority 2002, dated 2010):

How the values were obtained:
[1] = tested on: Akt; test: Western blot of Akt phosphorylation in K562 cells; type: cell-based, human; details: FIG. 11
Experimental: (§1) Cells were seeded in 100 mm culture dishes at a cell count of 5×10^4 cells/ml in 10 ml of SM and incubated at 37° C. for 12 h. Drug treatments were: DMSO as control, 0.05 μM I-BOP in DMSO, 0.5 μM I-BOP with 2.8 μM PBT-3, or 2.8 μM PBT-3 in DMSO. These concentrations were chosen based on results generated from the cell proliferation studies using thymidine incorporation. Cells were treated with drugs as described above for 6 h. After 6 h, cells were washed with 1×PBS and scraped, pelleted by centrifugation (1500 rpm, 5 min, room temperature), and washed again and pelleted as above. 200 μl cell lysis buffer (20 mM Tris-d pH 7.4, 150 mM NaCl, 1 mM EDTA, 1 mM EGTA, 1% Tx-100, 2.5 mM […], 1 mM β-glycerophosphate, 1 mM […], 1 μg/ml leupeptin, and 1 mM PMSF) were added to resuspend each pellet followed by 30 minutes of incubation on ice. […] Protein concentration was determined using a BSA standard with a BCA protein assay kit, prior to Western blotting.
(§2) Aliquots of protein (40 μg) were heated to 90° C. in SDS sample load buffer for 5 minutes, then separated by SDS-PAGE on 10% gels and transferred to nitrocellulose membranes. […] Membranes were then washed 5× in TBS-T. Bound first antibodies were detected by HRP-anti-rabbit immunoglobulins at 1:1000 in 5% non-fat dry milk for 1 h at room temperature, washing 5× in TBS-T then with enhanced chemiluminscent autoradiography (ECL). […]

[2] = tested on: Bcl-XL; test: Western blot of Bcl-XL expression in K562 cells; type: cell-based, human; details: FIG. 11
Experimental: as §1, §2

[3] = tested on: K562 CML cells; test: 3H-thymidine incorporation in K562 CML cells; type: cell-based, human; details: for effect on K562 cell growth: FIGS. 1-4
Experimental: Cell culture. Human leukemia K562 cells, obtained from the Hematology Department of the Hospital for Sick Children, were maintained as suspension cultures in RPMI 1640 medium containing 100 U/ml penicillin G, 100 μg/ml streptomycin, 10% (v/v) fetal bovine serum in a humidified atmosphere of 5% CO2 at 37° C. The ability of the cells to exclude Trypan Blue dye was used to assess cell viability.
Cells were seeded in 24 well dishes at a cell number of 5×10^4 cells/ml in starving medium (SM) of alpha Modified Eagle's Medium without fetal bovine serum (FBS) supplementation and incubated at 37° C. for 12 h. Tritiated thymidine ([^3H]-Thymidine; 25 Ci/mmol stock) was diluted in SM to a final activity of […]. The pharmacological agents tested were all diluted from their respective stocks to the desired concentration(s) with the tritiated SM. Cells receiving no drug treatments and cells treated with DMSO only were used as controls. SM was removed from the dishes, then treated with the various pharmacological agents in SM containing tritiated thymidine for 6 h at 37° C. PBT-3 was used at 2.8 μM in DMSO, (other than in dose response studies), I-BOP was used at 1.0 μM (in DMSO) and U46619 was used at 1.0 μM (in DMSO). Cells were trypsinized after 6 h and washed through Whatman GF-B/C membranes along with the supernatant. Dried membranes were deposited in scintillation vials with 8ml scintillation cocktail and the radioactivity present in the cells was counted with a liquid scintillation counter.
The effect of hepoxilin analogs on leukemia cells was examined using the CML K562 cell line. This cell line was derived from a human CML patient and is an accepted model of human chronic leukemia. The K562 cell line expresses the bcr/abl protein (Lozzio & Lozzio, 1975). It is relatively resistant to apoptosis (Martin et al., 1990), but ST1571 and other agents appear to control cell growth for a while before the cells overcome the drug effect (Weisberg & Griffin, 2000).

[4] = tested on: K562 CML cells; test: DNA fragmentation (laddering) by agarose gel electrophoresis in K562 cells; type: cell-based, human; details: PBT-3 2.8 μM, 24 or 72 hours, FIG. 5 Panel A
Experimental: Analysis of DNA fragmentation by gel electrophoresis. […] The samples were loaded on 2% agarose gel containing ethidium bromide (0.2 μg/ml). DNA fragments of known size were used as a reference marker. After electrophoresis at 25 V for 5 hours, the gels were photographed under trans-UV illumination.
Studies were carried out to determine if PBT-3 affected apoptosis in K562 CML cells. Cells were cultured for 24 or 72 hours in the presence of growth medium (control) or PBT-3 (2.8 μM). Apoptosis was examined by DNA laddering. Cultures were harvested, DNA was extracted with DNeasy (Qiagen) and samples were loaded on a 2% agarose gel containing 0.2 μg/ml ethidium bromide. A λ BstII DNA digest with DNA fragments of known size was used as a reference marker. After electrophoresis at 25V for 5 h, gels were photographed under trans-UV illumination.

[5] = tested on: K562 cells; test: Nuclear fragmentation by Hoechst 33342 staining of K562 cells; type: cell-based, human; details: Hoechst 33342 dye, FIG. 5 Panel B; STI571 1 μM, I-BOP 1 μM
Experimental: Quantification of apoptosis and cell viability. Induction of apoptosis and loss of cell viability after treatment with PBT-3 were assessed by staining the cells with Hoechst 33342 dye. […] Pellets were suspended with 5 μg/ml of Hoechst 33342 dye for 10 minutes at room temperature. Micrographs of the DNA-stained cells were taken with a Zeiss Axiovert 100 TV video camera. Images were captured using Axiovision version 3.0.6 and processed using Photoshop 5.0. Apoptotic cells were identified based on nuclear fragmentation and chromatin condensation around the nucleus.
Nuclear fragmentation was assessed by direct microscopy of treated cells stained with Hoechst 33342 dye.

[6] = tested on: MDA-MB 231 breast cancer cells; test: FACS analysis of breast cancer cell line MDA-MB 231; type: cell-based; details: FIG. 7
Experimental: (§3) Cells were seeded at 1×10^6 cells/ml and treated as above. Cells were scraped into 1×PBS, pelleted, washed, and repelleted as above. Cells were washed with PBS twice and scraped. The cells were pelleted by centrifugation at 1500 rpm, 5 min, at 23° C. and washed again. Cells were fixed with 50 μl PBS/HBSS with 2% calf serum and then with addition of 1 ml ice cold 80% ethanol. Samples were incubated on ice for 30 min and PBS/HBSS fixing was repeated and followed by adding 1 ml 70% ethanol. Centrifugation (1500 rpm, 5 min, room temperature) was performed to produce cell pellets that were resuspended by 250 μl of 0.1 mg/ml Propidium Iodide (Sigma) with 0.6% NP-40. 250 μl of 2 mg/ml RNAse was added and mixed well. Cells were incubated in the dark for 30 min at room temperature. Samples were then filtered through 85 μm Nitex mesh and the stained cells were analyzed on a flow cytometer of FACScan (Becton-Dickinson). The acquisition was done with 10,000 events per sample. The CellQuest (Becton-Dickinson) statistic analysis was performed in each individual experiment.

[7] = tested on: normal bone marrow cells; test: FACS analysis of apoptosis in normal bone marrow cells; type: cell-based; details: FIG. 8
Experimental: as §3

[8] = tested on: normal aortic smooth muscle cells; test: FACS analysis of apoptosis in normal aortic smooth muscle cells; type: cell-based; details: FIG. 9
Experimental: as §3

[9] = tested on: 3T3 L1 adipocytes; test: FACS analysis of apoptosis in normal 3T3 L1 adipocytes; type: cell-based; details: FIG. 10
Experimental: as §3

[10] = tested on: caspase-3; test: Western blot of caspase-3 activation (cleavage to 17 kDa fragment) in K562 cells; type: cell-based, human; details: FIG. 14
Experimental: Western blot. […] Treatment was terminated by washing cells with ice-cold PBS buffer. Cell lysates were prepared in buffer containing 20 mM Tris-HCl pH 7.4, 150 mM NaCl, 1 mM EDTA, 1 mM EGTA, 1% Triton X-100, 2.5 mM sodium pyrophosphate, 1 mM β-glycerophosphate, 1 mM sodium orthovanadate, 1 mM PMSF and 1 μM leupeptin on ice for 60 minutes. The lysates were clarified by centrifugation at 15,000×g for 15 minutes at 4° C. Lysates were subjected to protein assay and kept at −80° C. 250 μg protein was immunoprecipitated with anti-cytochrome c antibody or anti-caspase-3 antibody coupled to protein A-agarose beads. After washing of the immunocomplexes with lysis buffer, SDS-PAGE sample loading buffer was added and the mixture was boiled for 5 minutes. After centrifugation, the supernatant was loaded onto 10-12% SDS-PAGE gel, and transferred to the Trans-Blot Nitrocellulose membrane (Bio-Rad). Protein bands on the nitrocellulose membranes were checked visually with Ponceau S-staining to assure equivalent protein loading/transfer comparing different samples. […] Bound antibodies were detected using enhanced chemilluminescence (ECL) kit and the membranes were exposed to Hyperfilm for ECL.

[11] = tested on: K562 cells; test: 3H thymidine uptake in K562 cells after 2 days treatment, cell number reduction and culture without drug; type: cell-based, human; details: PBT analogues 28 μM, I-BOP and STI571 1 μM, then 3 days without compounds, FIG. 13
Experimental: K562 cells (3×10^5 cells/plate) were cultured for 2 days in 1% FBS/αMEM in the presence of 28 μM PBT-3 (∘) or 1 μM STI (●) and ^3H thymidine incorporation was determined. Untreated control cells (□) and cells treated with DMSO alone (▪) were also examined (test compounds were dissolved in DMSO). Results are shown in FIG. 12, Panel A. The cell number in all dishes was reduced to that observed after two days of PBT-3 treatment (7.5×10^3/ml) and the cells were subsequently cultured for 3 days in 10% FBS in the absence of the test compounds.
The hepoxilin analogs compare very favourably in efficacy with STI571.

Cc1ccc(NC(=O)c2ccc(CN3CCN(C)CC3)cc2)cc1Nc1nccc(-c2cccnc2)n1 [STI571, Imatinib, reference compound]
effect on phosphorylation of Akt [1]: increased it | effect on expression of the Bcl pathway (Bcl-XL) [2]: blocked the expression of the Bcl pathway (Bcl-XL)

CCCCC/C=C\CC1CC1C(O)/C=C\C/C=C\CCCC(=O)OC [PBT-3, 10(S)-hydroxy-11,12-cyclopropyl-eicosa-5Z,8Z,14Z-trienoic acid methyl ester]
concentration of maximum effect on inhibition of K562 cell growth ([3]; FIG. 1): 1 µg/mL | effect on K562 cell growth [3]: inhibited growth of K562 cells | DNA fragmentation associated with apoptosis [4]: causes DNA fragmentation associated with apoptosis | apoptotic effect (fragmentation of the nucleus and chromatin condensation) [5]: produced apoptotic cells | synchronisation of cells (to Go phase) [6]: synchronisation effect | apoptotic effect on normal bone marrow cells [7]: no apoptotic effect | apoptotic effect on normal aortic smooth muscle cells [8]: no apoptotic effect | apoptotic effect on normal (3T3 L1) adipocytes [9]: no apoptotic effect | effect on phosphorylation of Akt [1]: blocked phosphorylation of Akt | effect on expression of the Bcl pathway (Bcl-XL) [2]: essentially inactive | time of caspase-3 activation (cleavage into a 17 kDa fragment) [10]: 6 h

O=C(O)CCC/C=C\CC1C2CCC(O2)C1/C=C/C(O)COc1ccc(I)cc1 (stereo not drawn) [I-BOP, [1S-[1α,2α(Z),3β(1E, 3S*), 4α]]-7-[3-[3-hydroxy-4-(iodophenoxy)-1-butenyl]-7-oxabicyclo[2.2.1]hept-2-yl]-5-heptenoic acid, reference compound]
effect on K562 cell growth [3]: neither the thromboxane receptor agonists nor the thromboxane receptor antagonist affected K562 cell growth | apoptotic effect (fragmentation of the nucleus and chromatin condensation) [5]: No similar apoptotic effect

CCCCC/C=C\CC1CC1/C=C/C(O)C/C=C\CCCC(=O)OC [PBT-2, 8(R)-hydroxy-11, 12-cyclopropyl-eicosa-5Z, 9E, 14Z-trienoic acid methyl ester]
effectiveness in inhibiting cell growth (rank among treatments) [11]: most effective treatment

CCCCC[C@H](O)/C=C/[C@@H]1[C@@H](C/C=C\CCCC(=O)O)[C@H]2CO[C@@H]1C2 [U46619]
effect on K562 cell growth [3]: neither the thromboxane receptor agonists nor the thromboxane receptor antagonist affected K562 cell growth

O=C(O)CCC/C=C\C[C@@H]1[C@H](CNNC(=O)Nc2ccccc2)[C@H]2CC[C@@H]1O2 [SQ 29,548]
effect on K562 cell growth [3]: neither the thromboxane receptor agonists nor the thromboxane receptor antagonist affected K562 cell growth
